One assay addresses T1, human TLR7 (Homo sapiens, UniProt Q9NYK1).
T1 construct: host or cells: HEK-Blue cells
T1 sequence (Q9NYK1 27-1049): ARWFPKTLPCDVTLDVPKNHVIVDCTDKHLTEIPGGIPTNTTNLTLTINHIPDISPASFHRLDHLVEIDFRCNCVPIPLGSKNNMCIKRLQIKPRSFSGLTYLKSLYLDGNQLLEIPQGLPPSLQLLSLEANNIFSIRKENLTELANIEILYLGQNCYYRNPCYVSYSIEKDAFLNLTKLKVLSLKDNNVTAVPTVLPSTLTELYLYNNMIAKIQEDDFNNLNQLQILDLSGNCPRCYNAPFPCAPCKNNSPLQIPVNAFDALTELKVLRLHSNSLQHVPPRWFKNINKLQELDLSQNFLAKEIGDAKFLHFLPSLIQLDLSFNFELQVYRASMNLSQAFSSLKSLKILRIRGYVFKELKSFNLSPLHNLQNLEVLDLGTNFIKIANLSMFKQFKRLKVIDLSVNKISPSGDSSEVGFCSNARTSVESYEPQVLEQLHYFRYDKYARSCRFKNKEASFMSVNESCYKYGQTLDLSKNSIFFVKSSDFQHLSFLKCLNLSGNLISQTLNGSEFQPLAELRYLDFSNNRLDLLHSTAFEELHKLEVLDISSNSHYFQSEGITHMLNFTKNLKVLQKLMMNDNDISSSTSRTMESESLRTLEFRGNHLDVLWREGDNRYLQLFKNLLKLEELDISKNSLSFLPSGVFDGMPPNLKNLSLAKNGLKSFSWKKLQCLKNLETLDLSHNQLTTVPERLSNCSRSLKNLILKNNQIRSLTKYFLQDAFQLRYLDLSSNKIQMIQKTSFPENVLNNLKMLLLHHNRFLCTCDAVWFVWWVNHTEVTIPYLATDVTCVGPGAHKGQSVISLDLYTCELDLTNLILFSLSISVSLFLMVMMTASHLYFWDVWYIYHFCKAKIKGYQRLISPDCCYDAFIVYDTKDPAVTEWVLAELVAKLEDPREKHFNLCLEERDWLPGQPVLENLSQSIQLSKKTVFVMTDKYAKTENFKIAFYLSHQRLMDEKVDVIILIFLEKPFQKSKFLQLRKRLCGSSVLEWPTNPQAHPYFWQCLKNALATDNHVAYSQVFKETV
The assay is described as follows: TLR7 inhibition reporter assay (HEK-Blue SEAP). In kind it is cell-based. Conditions: HEK-Blue cells overexpressing human TLR7, gardiquimod 7.5 μM, 22 hour incubation. The gist of the method:
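HEK-Blue reporter cells (15,000/well TLR7, 20,000 TLR8) exposed to compound over 0.05 nM–50 μM, agonist-stimulated (R848 for TLR8, gardiquimod for TLR7), 22 h at 37 °C, 5% CO2. SEAP read with HEK-Blue Detection; % inhibition relative to agonist-plus-DMSO and known-inhibitor controls.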
(A reporter such as luciferase makes a cellular process visible.)

In another assay the target is T2, human TLR8 (Homo sapiens, UniProt Q9NR97).
T2 construct: host or cells: HEK-Blue cells
T2 sequence (Q9NR97 27-1041): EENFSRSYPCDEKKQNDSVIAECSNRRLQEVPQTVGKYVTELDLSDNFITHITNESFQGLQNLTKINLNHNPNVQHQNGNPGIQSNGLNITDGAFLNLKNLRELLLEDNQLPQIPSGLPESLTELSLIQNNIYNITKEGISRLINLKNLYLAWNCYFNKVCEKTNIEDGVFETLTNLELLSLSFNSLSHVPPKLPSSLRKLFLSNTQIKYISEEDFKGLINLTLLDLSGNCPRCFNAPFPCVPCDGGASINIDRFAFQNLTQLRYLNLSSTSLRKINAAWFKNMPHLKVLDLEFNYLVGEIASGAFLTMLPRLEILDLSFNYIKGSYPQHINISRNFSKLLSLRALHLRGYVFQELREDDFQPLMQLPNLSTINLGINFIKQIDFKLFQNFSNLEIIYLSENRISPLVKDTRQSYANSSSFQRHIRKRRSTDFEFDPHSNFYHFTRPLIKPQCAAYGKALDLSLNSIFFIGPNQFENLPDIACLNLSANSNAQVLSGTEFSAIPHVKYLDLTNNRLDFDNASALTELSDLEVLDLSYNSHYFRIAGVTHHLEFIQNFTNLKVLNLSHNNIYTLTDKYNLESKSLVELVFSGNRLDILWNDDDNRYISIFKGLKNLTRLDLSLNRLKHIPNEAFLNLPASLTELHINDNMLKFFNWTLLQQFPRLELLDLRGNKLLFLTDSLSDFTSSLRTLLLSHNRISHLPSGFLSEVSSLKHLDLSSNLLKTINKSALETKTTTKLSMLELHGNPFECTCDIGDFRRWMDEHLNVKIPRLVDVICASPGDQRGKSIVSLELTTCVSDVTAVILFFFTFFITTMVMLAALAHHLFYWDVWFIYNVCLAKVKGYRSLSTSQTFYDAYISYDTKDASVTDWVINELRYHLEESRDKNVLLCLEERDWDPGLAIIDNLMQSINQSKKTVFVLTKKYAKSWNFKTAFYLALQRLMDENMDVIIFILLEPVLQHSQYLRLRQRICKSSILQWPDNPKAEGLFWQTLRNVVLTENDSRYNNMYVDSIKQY
Description: TLR8 inhibition reporter assay (HEK-Blue SEAP). In kind it is cell-based. Conditions: HEK-Blue cells overexpressing human TLR8, R848 15.9 μM, 22 hour incubation. A digest of the protocol: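 Agonists used: gardiquimod 7.5 μM (TLR7), R848 15.9 μM (TLR8), ODN2006 5 nM (TLR9), added after 30 min room-temperature compound pre-treatment (0.05 nM–50 μM) of receptor-overexpressing HEK-Blue cells. SEAP reporter (NF-κB/AP-1 driven) read after 22 h at 37 °C; inhibition scaled between agonist+DMSO and reference-inhibitor wells.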

In general, IC50 refers to the concentration that inhibits the measured activity by half. Low values mean higher potency, high ones lower potency. For the compound `CCCN[C@H]1CC[C@@H](n2c(=O)[nH]c3cc(-c4cc(OC)c5ncnn5c4)c(C(C)C)cc32)CC1` [Example 195, 6-isopropyl-5-(8-methoxy-[1,2,4]triazolo[1,5-a]pyridin-6-yl)-1-((1 s,4s)-4-(propylamino)cyclohexyl)-1,3-dihydro-2H-benzo[d]imidazol-2-one], the IC50 against human TLR7 stood at 1.39 nM; against human TLR8 it was 0.27 nM.

`CCc1cc2c(cc1-c1cc(OC)c3ncnn3c1)[nH]c(=O)n2[C@@H]1CCCN(C)C1` [Example 174, (R)-6-ethyl-5-(8-methoxy-[1,2,4]triazolo[1,5-a]pyridin-6-yl)-1-(1-methylpiperidin-3-yl)-1,3-dihydro-2H-benzo[d]imidazol-2-one]: the IC50 was determined as 1.14 nM at human TLR7 and 1.39 nM against human TLR8.

With `Cc1cc2c(cc1-c1cc(C)c3ncnn3c1)[nH]c(=O)n2[C@H]1CCCN(C)C1` [Example 11, (S)-6-methyl-5-(8-methyl-[1,2,4]triazolo[1,5-a]pyridin-6-yl)-1-(1-methylpiperidin-3-yl)-1,3-dihydro-2H-benzo[d]imidazol-2-one], the IC50 on human TLR7 was 276 nM; on human TLR8, 143 nM.

For the compound `Cc1c(-c2cc3[nH]c(=O)n([C@H]4CC[C@@H](NC(C)C)CC4)c3cc2C(C)C)cn2ncnc2c1C` [Example 186, 5-(7,8-dimethyl-[1,2,4]triazolo[1,5-a]pyridin-6-yl)-6-isopropyl-1-((1s,4s)-4-(isopropylamino)cyclohexyl)-1,3-dihydro-2H-benzo[d]imidazol-2-one], the IC50 turned out to be 0.95 nM on human TLR7 and 0.13 nM on human TLR8.

With `COCCN1CCC[C@@H](n2c(=O)[nH]c3cc(-c4cc(OC)c5ncnn5c4)c(C(C)C)cc32)C1` [Example 226, (R)-6-isopropyl-5-(8-methoxy-[1,2,4]triazolo[1,5-a]pyridin-6-yl)-1-(1-(2-methoxyethyl)piperidin-3-yl)-1,3-dihydro-2H-benzo[d]imidazol-2-one], the IC50 against human TLR7 stood at 1.13 nM; on human TLR8, 4.15 nM.

Regarding `COc1cc(-c2cc3[nH]c(=O)n(C4CCC(N5CC(O)(C(F)(F)F)C5)CC4)c3cc2C(C)C)cn2ncnc12` (single isomer, unassigned) [Example 242, 1-(4-(3-hydroxy-3-(trifluoromethyl)azetidin-1-yl)cyclohexyl)-6-isopropyl-5-(8-methoxy-[1,2,4]triazolo[1,5-a]pyridin-6-yl)-1,3-dihydro-2H-benzo[d]imidazol-2-one], the IC50 against human TLR7 was 10.4 nM; at human TLR8, 1.12 nM.

In the case of `COc1cc(-c2cc3[nH]c(=O)n([C@H]4CCCN(CCS(C)(=O)=O)C4)c3cc2C(C)C)cn2ncnc12` [Example 222, (S)-6-isopropyl-5-(8-methoxy-[1,2,4]triazolo[1,5-a]pyridin-6-yl)-1-(1-(2-(methylsulfonyl)ethyl)piperidin-3-yl)-1,3-dihydro-2H-benzo[d]imidazol-2-one], the IC50 is 138 nM at human TLR7 and 53.2 nM against human TLR8.

Take `COc1cc(-c2cc3[nH]c(=O)n(C4CCC(N5CCC6(CC5)COC6)CC4)c3cc2C(C)C)cn2ncnc12` (centres unmarked) [Example 239, 1-(4-(2-oxa-7-azaspiro[3.5]nonan-7-yl)cyclohexyl)-6-isopropyl-5-(8-methoxy-[1,2,4]triazolo[1,5-a]pyridin-6-yl)-1,3-dihydro-2H-benzo[d]imidazol-2-one]: the half-inhibitory concentration (IC50) was determined as 1.69 nM on human TLR7 and 0.21 nM at human TLR8.

With `CCc1cc2c(cc1-c1cc(OC)c3ncnn3c1)[nH]c(=O)n2[C@@H]1CCCN(C(=O)CN(C)C)C1` [Example 228, (R)-1-(1-(dimethylglycyl)piperidin-3-yl)-6-ethyl-5-(8-methoxy-[1,2,4]triazolo[1,5-a]pyridin-6-yl)-1,3-dihydro-2H-benzo[d]imidazol-2-one], the IC50 came out at 34.9 nM against human TLR7 and 38.7 nM at human TLR8.

`COc1cc(-c2cc3[nH]c(=O)n([C@H]4CC[C@H](N(CC(C)C)CC(C)C)CC4)c3cc2C(C)C)cn2ncnc12` [Example 205, 1-((1r,4r)-4-(diisobutylamino)cyclohexyl)-6-isopropyl-5-(8-methoxy-[1,2,4]triazolo[1,5-a]pyridin-6-yl)-1,3-dihydro-2H-benzo[d]imidazol-2-one]: the IC50 at human TLR7 was found to be 4.76 nM; on human TLR8 it was 1.63 nM.

In the case of `COc1cc(-c2cc3[nH]c(=O)n(C4CCC(N5CCNC(=O)C5)CC4)c3cc2C(C)C)cn2ncnc12` (single isomer, unassigned) [Example 233, 6-isopropyl-5-(8-methoxy-[1,2,4]triazolo[1,5-a]pyridin-6-yl)-1-(4-(3-oxopiperazin-1-yl)cyclohexyl)-1,3-dihydro-2H-benzo[d]imidazol-2-one], the values for the IC50 against human TLR7 and at human TLR8 were 11 nM and 1.9 nM, respectively.

Consider `CCN[C@H]1CC[C@@H](n2c(=O)[nH]c3cc(-c4cn5ncnc5c(C)c4C)c(C(C)C)cc32)CC1` [Example 189, 5-(7,8-dimethyl-[1,2,4]triazolo[1,5-a]pyridin-6-yl)-1-((1s,4s)-4-(ethylamino)cyclohexyl)-6-isopropyl-1,3-dihydro-2H-benzo[d]imidazol-2-one], for which the IC50 amounted to 9.82 nM at human TLR7 and 3.11 nM against human TLR8.

With `CCc1cc2c(cc1-c1cc(OC)c3ncnn3c1)[nH]c(=O)n2[C@@H]1CCCN(CC(CC)CC)C1` [Example 178, (R)-6-ethyl-1-(1-(2-ethylbutyl)piperidin-3-yl)-5-(8-methoxy-[1,2,4]triazolo[1,5-a]pyridin-6-yl)-1,3-dihydro-2H-benzo[d]imidazol-2-one], the IC50 on human TLR7 worked out at 0.81 nM; on human TLR8, 2.62 nM.

For the origin of these results see patent publication US12187723B2 (BRISTOL-MYERS SQUIBB COMPANY, priority 2019, dated 2025).
